According to US20070065443A1, “Fructoseamine 3 kinase and the formation of collagen and elastin” (priority 2004, published 2007):
Values joined by “and” are separate entries in the source; they are usually repeats but may differ in a detail not shown here. Identical values can stand only once.

Columns and labels:
desmosines [1] = assay: Aorta desmosine levels in diabetic rats; format: in vivo, rat
Method: (§1) For desmosine analysis, the biopsy of tissue is fixated using paraffin. The paraffin is removed from the […] in the microfuge tubes by incubating for 10 minutes with 500 μL of xylene. Five microliters of water is added, the tubes gently vortexed and then microfuged. The xylene is carefully removed, 400 μL of 6N HCl is added to the protein pellet, and the samples hydrolyzed for 24 hours at 100° C. The acid is evaporated in a savant vacuum centrifuge and the hydrolysate redissolved in 400 μL distilled water. The samples are vortexed and microfuged and 20 μL removed from each tube for desmosine analysis by radioimmunoassay. Protein content is determined in 2 μL of the hydrolysate by slightly modifying the ninhydrin method. A stock ninhydrin solution is made by dissolving 10 g of ninhydrin in 375 mL of ethylene glycol and 125 mL of 4N sodium acetate buffer, pH 5.5. For the working solution, 250 μL of 10% stannous chloride suspension is added for every 10 mL of the ninhydrin stock solution. Hydroxyproline is determined in 50 μL of hydrolysate by amino acid analysis.

desmosines [2] = assay: Skin desmosine content in diabetic rats; format: in vivo, rat
Method: as §1
The production of desmosines, a precursor to elastin, can be regulated by compounds that affect the Amadorase pathway. Skin from normal, diabetic, and animals treated with 1-deoxy-1-morpholinofructose were excised and for desmosine content as described in example 29.

[3] = target: T1, Calf skin collagen type I (Bos taurus, UniProt P02453+P02465); assay: 3DG-induced collagen crosslinking and inhibition by arginine (CNBr digest, SDS-PAGE); format: biochemical; conditions: 37° C., 24 hours
T1 construct: Calf skin collagen type I (1.3 mg; Sigma); purchased Sigma; host or cells: calf skin
Method: Collagen type I was treated with 3DG in the-presence or absence of arginine. The samples were subjected to cyanogen bromide (CNBr) digestion, electrophoresed on a 16.5% SDS Tris-tricine gel, and then the gels were processed using silver stain techniques to visualize the proteins. Lane 1 contains molecular weight marker standards. Lanes 2 and 5 contain 10 and 20 μl of the collagen mixture following CNBr digestion. Lanes 3 and 6 contain the collagen mixture treated with 3DG and then digested with CNBr, and loaded at 10 and 20 μl, respectively. Lanes 4 and 7 contain the mixture of collagen incubated with 5 mM 3DG and 10 mM arginine and then digested with CNBr, and loaded at 10 and 20 μl, respectively.
Collagen I was incubated in the presence or absence of 3DG in vitro. Calf skin collagen type I (1.3 mg; Sigma) was incubated in 20 mM Na-phosphate buffer, pH 7.25, either alone, with 5 mM 3DG, or with 5 mM 3DG plus 10 mM arginine, in a total volume of 1 ml at 37° C. for 24 hours and then frozen and lyophilized. The residue was dissolved in 0.5 ml of 70% formic acid and cyanogen bromide was added (20:1, w/w). This solution was incubated at 30° C. for 18 hours. […] The extent of collagen crosslinking was determined by applying equal volumes of sample and analyzing by SDS-PAGE electrophoresis (16.5% Tris-tricine gel), as determined by the effects of 3DG on the migration of collagen.

Amadorase [4] = conditions: read-out: concentration inhibiting Amadorase by 50%; purified Amadorase, 37° C., 15 minutes
Method: Experiments were performed to test the effect of copper on the activity of the Amadorase enzyme in vitro. Using methods described elsewhere, increasing amounts of copper in the form of CuSO4, was added to an in vitro assay. Purified Amadorase was added to the reaction, incubated at 37° C. for 15 minutes, and the amount of FL3P measured. The graph depicted in FIG. 20 represents percent Amadorase activity as a function of copper concentration.

[5] = Urinary FL, 3DG and 3DF in humans after ingestion of glycated protein (2 g FL); format: in vivo, human; conditions: seven volunteers, 2 gram dose of fructoselysine as glycated protein food
Method: 260 g of casein, 120 g of glucose and 720 ml of water were mixed to give a homogeneous mixture. This mixture was transferred to a metal plate and heated at 65° C. for 68 hours. The resulting cake was then pulverized to a coarse powder. This powder contained 60% protein as determined by the Kjeldahl procedure.
One gram of the powder prepared as in step a., above, was hydrolyzed by refluxing with 6N HCl for 20 hours. The resulting solution was adjusted to pH 1.8 with NaOH solution and diluted to 100 ml. The fructoselysine content was measured on an amino acid analyzer as furosine, the product obtained from acid hydrolysis of fructoselysine. In this way, it was determined that the cake contained 5.5% (w/w) fructoselysine. […]
FL was measured by HPLC with a Waters 996 diode Array using a Waters C18 Free Amino Acid column at […] and a gradient elution system of acetonitrile-methyl alcohol-water (45:15:40) into acetonitrile-sodium acetate-water (6:2:92) at 1 ml/min. Quantitation employed an internal standard of meglumine. 3DF was measured by HPLC after deionization of the sample. […] Quantitation was performed from standard curves obtained daily with synthetic 3DF.
3DG was measured by GC-MS after deionization of the sample. […] Quantitation of 3DG employed selected ion monitoring using an internal standard of U-13C-3DG.

Amadorase [6] = assay: In vitro Amadorase-dependent production of 3DG from FL; format: biochemical; conditions: FL 2.6 mM
[7] = tested on: human dermal fibroblasts acquired from a patient with scleroderma; assay: Collagen 1A1 mRNA by Northern blot in scleroderma fibroblasts; format: cell-based; conditions: 5 mM, 72 hours, normalized to GAPDH mRNA
Method: In these experiments 5 mM FL was added to cultured human dermal fibroblasts acquired from a patient with scleroderma. After 72 hours, cells were collected and mRNA isolated. Equal amounts of each mRNA preparation was separated by electrophoresis and the amount of collagen 1A1 mRNA detected by Northern blot using a radioactive probe to the collagen 1A1 mRNA as shown in FIG. 19. A phosphoimager was used to quantify the amount of collagen type 1 mRNA. A radioactive probe to the GAPDH mRNA was used as a control to normalize the level of collagen 1A1 mRNA in each sample. The level of collagen 1A1 RNA was decreased by 40%.

3-deoxyglucosone = assay: Reduction of urinary and plasma 3-deoxyglucosone by polyollysines and meglumine; format: in vivo, rat; conditions: for reduction of plasma 3-deoxyglucosone / average reduction of urinary 3-deoxyglucosone: rats, 10 μmols i.p.; for reduction of plasma 3-deoxyglucosone: plasma at end of 3 h; for average reduction of urinary 3-deoxyglucosone: urine 3 h before vs 3 h after, normalized to creatinine
Method: Urine was collected from six rats for three hours. A plasma sample was also obtained. The animals were then given 10 μmols of either sorbitollysine, mannitollysine, or galactitollysine by intraperitoneal injection. Urine was collected for another three hours, and a plasma sample obtained at the end of the three hours. 3-deoxyglucosone was measured in the samples, as described in Example 5, below, and variable volumes were normalized to creatinine. The average reduction of urinary 3-deoxyglucosone was 50% by sorbitollysine, 35% by mannitollysine and 35% by galactitollysine. Plasma 3-deoxyglucosone was reduced 40% by sorbitollysine, 58% by mannitollysine and 50% by galactitollysine.
Three rats were treated as in b), immediately above, except meglumine (100 μmols) was injected intraperitoneally instead of the above-mentioned lysine derivatives. Three hours after the injection the average 3-deoxyglucosone concentrations in the urine were decreased 42%.
3DG was measured by GC-MS after deionization of the sample. 3DG was derivatized with a 10-fold excess of diaminonaphthalene in PBS. Ethyl acetate extraction gave a salt free fraction which was converted to the trimethyl silyl ethers with Tri-Sil (Pierce). Analysis was performed on a Hewlett-Packard 5890 selected ion monitoring GC-MS system. GC was performed on a fused silica capillary column (DB-5,25 mx.25 mm) using the following temperature program: injector port 250° C., initial column temperature 150° C. which was held for 1 minute, then increased to 290° C. at 16° C./minute and held for 15 minutes. Quantitation of 3DG employed selected ion monitoring using an internal standard of U-13C-3DG.

desmosines [8] = assay: Lung desmosine levels in STZ-diabetic mice; format: in vivo; conditions: regardless of whether diabetic
Method: as §1
Lung tissues from mice made diabetic with STZ was excised and analyzed for desmosine levels. The levels of desmosines in diabetic mice were greater than non-diabetic mice.

[9] = individual treated diabetic rats

T1 sequence (P02453 162-1217 limits assumed): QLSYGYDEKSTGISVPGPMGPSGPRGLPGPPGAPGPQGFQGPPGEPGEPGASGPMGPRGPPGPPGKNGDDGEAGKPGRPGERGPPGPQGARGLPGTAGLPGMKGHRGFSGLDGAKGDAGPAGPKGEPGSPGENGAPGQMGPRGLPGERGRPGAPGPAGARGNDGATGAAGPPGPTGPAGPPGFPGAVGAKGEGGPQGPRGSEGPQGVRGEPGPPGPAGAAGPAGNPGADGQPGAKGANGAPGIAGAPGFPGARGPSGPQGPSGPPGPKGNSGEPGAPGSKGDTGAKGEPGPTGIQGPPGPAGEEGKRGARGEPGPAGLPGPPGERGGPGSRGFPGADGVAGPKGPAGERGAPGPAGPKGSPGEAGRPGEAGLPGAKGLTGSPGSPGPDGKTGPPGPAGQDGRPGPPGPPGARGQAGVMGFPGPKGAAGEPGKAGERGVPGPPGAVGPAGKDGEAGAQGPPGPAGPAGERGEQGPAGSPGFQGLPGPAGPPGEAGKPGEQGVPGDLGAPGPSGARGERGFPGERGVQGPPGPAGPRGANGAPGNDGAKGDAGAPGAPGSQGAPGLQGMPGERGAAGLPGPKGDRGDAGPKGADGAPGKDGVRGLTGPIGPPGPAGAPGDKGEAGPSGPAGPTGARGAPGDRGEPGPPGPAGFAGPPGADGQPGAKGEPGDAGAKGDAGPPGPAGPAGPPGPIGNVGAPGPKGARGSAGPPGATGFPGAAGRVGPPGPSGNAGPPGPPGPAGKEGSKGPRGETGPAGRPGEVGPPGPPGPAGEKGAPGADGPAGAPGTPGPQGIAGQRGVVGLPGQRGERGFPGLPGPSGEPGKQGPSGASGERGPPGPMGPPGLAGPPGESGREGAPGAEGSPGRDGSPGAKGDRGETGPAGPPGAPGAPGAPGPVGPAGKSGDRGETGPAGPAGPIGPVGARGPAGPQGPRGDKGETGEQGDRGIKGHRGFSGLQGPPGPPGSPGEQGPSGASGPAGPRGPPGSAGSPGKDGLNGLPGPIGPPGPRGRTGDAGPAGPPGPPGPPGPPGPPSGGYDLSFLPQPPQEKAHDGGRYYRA
T1 sequence (P02465 80-1117 limits assumed): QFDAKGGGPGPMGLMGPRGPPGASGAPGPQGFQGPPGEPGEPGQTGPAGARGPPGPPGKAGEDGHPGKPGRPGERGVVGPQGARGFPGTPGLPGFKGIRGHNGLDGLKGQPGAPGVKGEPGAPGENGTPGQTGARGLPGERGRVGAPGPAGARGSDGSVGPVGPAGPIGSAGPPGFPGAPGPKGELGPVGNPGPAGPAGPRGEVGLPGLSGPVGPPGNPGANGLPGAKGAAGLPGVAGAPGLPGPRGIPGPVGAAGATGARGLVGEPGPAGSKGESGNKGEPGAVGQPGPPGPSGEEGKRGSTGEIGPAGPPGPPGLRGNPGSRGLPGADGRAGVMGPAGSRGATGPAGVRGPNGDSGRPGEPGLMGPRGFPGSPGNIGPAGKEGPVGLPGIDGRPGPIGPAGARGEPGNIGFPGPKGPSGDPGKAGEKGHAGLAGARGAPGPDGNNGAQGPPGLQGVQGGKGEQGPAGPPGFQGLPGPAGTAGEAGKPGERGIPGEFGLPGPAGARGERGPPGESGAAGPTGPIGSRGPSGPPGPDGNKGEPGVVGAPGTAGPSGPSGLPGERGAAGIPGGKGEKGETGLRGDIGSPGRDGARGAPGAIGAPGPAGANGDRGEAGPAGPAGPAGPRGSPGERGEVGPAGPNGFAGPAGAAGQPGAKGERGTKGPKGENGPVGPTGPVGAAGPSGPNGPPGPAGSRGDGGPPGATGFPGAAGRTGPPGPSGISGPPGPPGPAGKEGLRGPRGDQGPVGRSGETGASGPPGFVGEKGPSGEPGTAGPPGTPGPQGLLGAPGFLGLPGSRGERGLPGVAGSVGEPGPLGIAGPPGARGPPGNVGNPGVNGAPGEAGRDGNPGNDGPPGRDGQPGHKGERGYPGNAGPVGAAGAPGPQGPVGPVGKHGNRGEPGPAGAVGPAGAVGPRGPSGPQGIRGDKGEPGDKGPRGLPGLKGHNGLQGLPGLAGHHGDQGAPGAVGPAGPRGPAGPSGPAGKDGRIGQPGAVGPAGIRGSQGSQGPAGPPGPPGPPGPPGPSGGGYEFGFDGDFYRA

O=C(CN1CCOCC1)[C@@H](O)[C@H](O)[C@H](O)CO [1-deoxy-1-morpholinofructose]
aorta desmosine levels compared to untreated diabetic rats (desmosines [1]; diabetic rats, P=0.104): decrease in desmosine levels
aorta desmosine pmD/mgP (desmosines [1]; [9]): 3809 pmD/mgP and 2558 pmD/mgP and 2842 pmD/mgP and 2906 pmD/mgP and 3633 pmD/mgP and 3681 pmD/mgP
skin desmosine levels compared to untreated diabetic animals (desmosines [2]; diabetic animals, P=0.00242): lower levels of desmosines
skin desmosine content pmD/mgP (desmosines [2]; [9]): 63.1 pmD/mgP and 67.9 pmD/mgP (2×) and 88.1 pmD/mgP and 64.3 pmD/mgP and 65.8 pmD/mgP and 65.1 pmD/mgP and 66.8 pmD/mgP

O=CC(=O)C[C@H](O)[C@H](O)CO [3DG, 3-deoxyglucosone, reference compound]
effect on collagen migration (crosslinking) ([3]; collagen type I with 5 mM 3DG): caused the collagen to migrate as if it had a higher molecular weight

O=S(=O)([O-])[O-].[Cu+2] [Copper sulfate]
IC50 (Amadorase [4]): ~1000 nM

N=C(N)NCCC[C@H](N)C(=O)O [arginine]
inhibition of 3DG induced collagen crosslinking ([3]; collagen type I with 5 mM 3DG plus 10 mM arginine): fewer high molecular bands

N[C@@H](CCCCNCC(=O)[C@@H](O)[C@H](O)[C@H](O)CO)C(=O)O [fructoselysine]
time of peak 3DF excretion in urine after FL bolus [5]: about 4 hours
3DG (mM) after 24 hours (Amadorase [6]; reaction 1: Amadorase +, ATP +): 1.58 mM
FL3P (mM) after 24 hours (Amadorase [6]; reaction 1: Amadorase +, ATP +): 0.2 mM
3DG (mM) after 24 hours (Amadorase [6]; reaction 2: Amadorase +, ATP −): 0.08 mM
FL3P (mM) after 24 hours (Amadorase [6]; reaction 2: Amadorase +, ATP −): 0.0 mM
3DG (mM) after 24 hours (Amadorase [6]; reaction 3: Amadorase −, ATP +): 0.09 mM
FL3P (mM) after 24 hours (Amadorase [6]; reaction 3: Amadorase −, ATP +): 0.0 mM
3DG (mM) after 24 hours (Amadorase [6]; reaction 4: Amadorase −, ATP −): 0.08 mM
FL3P (mM) after 24 hours (Amadorase [6]; reaction 4: Amadorase −, ATP −): 0.0 mM
decrease of level of collagen 1A1 RNA [7]: 40%

N[C@@H](CCCCNC[C@H](O)[C@@H](O)[C@@H](O)[C@H](O)CO)C(=O)O [galactitollysine]
reduction of plasma 3-deoxyglucosone (3-deoxyglucosone): 50%
average reduction of urinary 3-deoxyglucosone (3-deoxyglucosone): 35%

N[C@@H](CCCCNC[C@@H](O)[C@@H](O)[C@H](O)[C@H](O)CO)C(=O)O [mannitollysine]
reduction of plasma 3-deoxyglucosone (3-deoxyglucosone): 58%
average reduction of urinary 3-deoxyglucosone (3-deoxyglucosone): 35%

CNC[C@H](O)[C@@H](O)[C@H](O)[C@H](O)CO [meglumine, reference compound]
decrease of average 3-deoxyglucosone concentration in urine (3-deoxyglucosone; three rats, 100 μmols i.p., three hours after injection): 42%
lung desmosine levels compared to untreated mice (desmosines [8]): less than mice not so treated

N[C@@H](CCCCNC[C@H](O)[C@@H](O)[C@H](O)[C@H](O)CO)C(=O)O [sorbitollysine]
reduction of plasma 3-deoxyglucosone (3-deoxyglucosone): 40%
average reduction of urinary 3-deoxyglucosone (3-deoxyglucosone): 50%
